In patent US20220273659A1, “HETEROCYCLIC COMPOUNDS AS KINASE INHIBITORS” (NUVATION BIO INC., priority 2019, published 2022) one finds IC50 data, which are given here for 15 compounds.

The target in one test is T1, FMS kinase (Homo sapiens, UniProt P07333).
T1 construct: purchased Invitrogen (Life Technologies)
Briefly: LanthaScreen Eu Kinase Binding Assay (ATP, fluorescent-PolyGT substrate). It counts as biochemical. The method, then:
IC50 values of compounds against FMS kinase were determined by LanthaScreen™ Eu Kinase Binding Assay at Invitrogen (Life Technologies Grand Island, N.Y.) where total reaction volume was 10 μL in low-volume 384-well plates (#4511, Corning). Serially diluted compounds (3-fold) were incubated with kinase (1.25 nM) for 10 min, following which a mixture of ATP (10 μM) (#A1852, Sigma, St-Louis, Mo.) and fluorescent-PolyGT substrate (200 nM) (#PV3610, Invitrogen, Life Technologies Grand Island, N.Y.) was added and incubated in dark at room temperature for 1H. After 1H, 10 μL stop solution containing Terbium labeled antibody (4 nM) (#PV3529, Invitrogen, Life Technologies Grand Island, N.Y.) and EDTA (#E5134, Sigma, St-Louis, Mo.) (20 mM) in TR-FRET dilution buffer (#PV3574, Invitrogen, Life Technologies Grand Island, N.Y.) was added. Readings were taken in a Synergy Neo Plate reader (BioTek, Winooski) at single excitation of 340 nm and Dual emission at 495 nm and 520 nm respectively.
The following equations were used for LanthaScreen Eu Kinase Binding Assay Data Analysis. Percent inhibition (100-% activity) was fitted to the “four-parameter logistic model” in XLfit for determination of IC50 values.

The next test deals with T2, CDK4 (Homo sapiens, UniProt P11802).
T2 construct: purchased Invitrogen PR8064A
Kind of test: In vitro kinase inhibition IC50, luminescence (ADP Glo), retinoblastoma substrate. The format is biochemical. As to conditions: read-out: CDK4/D1 IC50. In a few lines: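 Inhibition of CDK4 was quantified by ADP Glo luminescence with retinoblastoma as substrate. Reactions held 5 nM kinase, 1 μM retinoblastoma and 25 μM ATP and ran 2H at room temperature. A Synergy Neo reader took signals 15 min and 45 min after detection reagent, and percent inhibition was fitted to a four-parameter logistic model in XLfit to obtain IC50.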
A general note: In ADP-Glo the light output rises with the ADP produced.

Another test addresses T3, CDK6 (Homo sapiens, UniProt Q00534).
T3 construct: purchased Invitrogen PR8422B
The description is as above. The format is biochemical. As to conditions: read-out: CDK6/D1 IC50. The procedure, abridged:
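IC50 derived by four-parameter logistic fit of percent inhibition, read as ADP-Glo luminescence. Reactions: 5 nM CDK6, 1 μM retinoblastoma, 25 μM ATP, test compound 0.1–200 nM final, 2 h at room temperature.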

The target in another test is T4, PI3Kδ kinase (Homo sapiens, UniProt O00329).
T4 construct: purchased Reaction Biology Corporation (assay service)
Kind of test: PI3Kδ kinase assay (ADP-Glo, Reaction Biology). The format is biochemical. The protocol: IC50 values of compounds against the PI3Kδ kinase were determined by an assay performed by Reaction Biology Corporation (Malvern, Pa.). Briefly, this assay was conducted in buffer (Tris-HCl 40 mM (pH7.5), Orthovanadate 3 mM, MgCl2 20 mM, DTT 2 mM, CHAPS 0.05%, DMSO 1%). PI3Kδ kinase was added to the reaction solution and mixed gently. The test compounds in 100% DMSO (at specific solutions) were mixed with the kinase reaction mixture to achieve the final compounds at pre-defined concentrations (e.g., range −0.5 nM to 100 μM) by Acoustic technology (Echo550; nanoliter range). After incubating for 10 min at room temp, ATP was added into the reaction mixture to initiate the reaction followed by a 30-min incubation at 30° C. After quenching the reaction with ADP-Glo reagent, the plates were incubated for 40 min. The Detection Mixture was added, and the plate was incubated for an additional 30 min. At the end of incubation, luminescence was measured. For data analysis, the luminescence was converted into μM ADP production based on ADP standard curves. The nonlinear regression to obtain the standard curve and IC50 values was performed using GraphPad Prism (GraphPad Software, Inc., San Diego, Calif.).

Test [1] deals with MCF-7 breast adenocarcinoma cells. Kind of test: Cancer cell proliferation assay, single agent (cell viability). The format is cell-based. As to conditions: Homo sapiens, MCF7, Table 4; Rb positive; treatment 144 Hr with medium change at 72 Hr; Cell Titer-Glo or resazurin. The procedure, abridged: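 Viability read by resazurin or CellTiter-Glo after 24 h treatment (BT-549) or 144 h with a 72 h medium change (MCF-7, DU4475). Compounds tested at 7–9 concentrations, e.g. 1.1 nM–10 μM, added the day after seeding; IC50 by nonlinear sigmoidal regression.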
For orientation: ATP-based viability assays read luminescence as a measure of living cells.

Molecules are shown by their SMILES. pIC50: −log10 of the molar value. A value given as a limit tells only on which side of the number the result lay.

T3 sequence (Q00534 whole entry): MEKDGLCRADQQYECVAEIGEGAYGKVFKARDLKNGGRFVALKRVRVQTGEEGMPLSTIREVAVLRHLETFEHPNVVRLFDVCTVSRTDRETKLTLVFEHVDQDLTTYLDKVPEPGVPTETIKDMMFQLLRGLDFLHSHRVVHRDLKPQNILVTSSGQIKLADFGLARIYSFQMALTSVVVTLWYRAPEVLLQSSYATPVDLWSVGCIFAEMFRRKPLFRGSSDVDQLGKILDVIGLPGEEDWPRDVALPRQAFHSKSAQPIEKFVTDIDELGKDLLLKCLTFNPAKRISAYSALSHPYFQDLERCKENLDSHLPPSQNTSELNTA
T3 sequence (P24385 whole entry partner): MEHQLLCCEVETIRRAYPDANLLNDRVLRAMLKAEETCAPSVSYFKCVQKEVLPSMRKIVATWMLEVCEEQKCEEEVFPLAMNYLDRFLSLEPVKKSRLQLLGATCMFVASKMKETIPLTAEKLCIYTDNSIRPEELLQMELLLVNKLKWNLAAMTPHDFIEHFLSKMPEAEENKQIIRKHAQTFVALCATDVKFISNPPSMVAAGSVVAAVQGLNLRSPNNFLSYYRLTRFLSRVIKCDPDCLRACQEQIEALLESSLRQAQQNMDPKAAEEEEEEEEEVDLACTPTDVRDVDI
T2 sequence (P11802 whole entry): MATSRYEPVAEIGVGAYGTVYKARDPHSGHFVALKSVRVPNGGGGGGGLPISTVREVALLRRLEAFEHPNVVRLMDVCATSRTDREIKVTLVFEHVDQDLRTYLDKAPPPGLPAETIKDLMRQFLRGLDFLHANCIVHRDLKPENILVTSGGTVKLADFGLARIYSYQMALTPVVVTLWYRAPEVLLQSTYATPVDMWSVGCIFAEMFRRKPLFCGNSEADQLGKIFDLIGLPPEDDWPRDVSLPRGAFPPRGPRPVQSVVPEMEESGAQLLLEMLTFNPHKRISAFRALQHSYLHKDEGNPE
T2 sequence (P24385 whole entry partner): as the sequence (P24385 whole entry partner) above
T1 sequence (P07333 20-972): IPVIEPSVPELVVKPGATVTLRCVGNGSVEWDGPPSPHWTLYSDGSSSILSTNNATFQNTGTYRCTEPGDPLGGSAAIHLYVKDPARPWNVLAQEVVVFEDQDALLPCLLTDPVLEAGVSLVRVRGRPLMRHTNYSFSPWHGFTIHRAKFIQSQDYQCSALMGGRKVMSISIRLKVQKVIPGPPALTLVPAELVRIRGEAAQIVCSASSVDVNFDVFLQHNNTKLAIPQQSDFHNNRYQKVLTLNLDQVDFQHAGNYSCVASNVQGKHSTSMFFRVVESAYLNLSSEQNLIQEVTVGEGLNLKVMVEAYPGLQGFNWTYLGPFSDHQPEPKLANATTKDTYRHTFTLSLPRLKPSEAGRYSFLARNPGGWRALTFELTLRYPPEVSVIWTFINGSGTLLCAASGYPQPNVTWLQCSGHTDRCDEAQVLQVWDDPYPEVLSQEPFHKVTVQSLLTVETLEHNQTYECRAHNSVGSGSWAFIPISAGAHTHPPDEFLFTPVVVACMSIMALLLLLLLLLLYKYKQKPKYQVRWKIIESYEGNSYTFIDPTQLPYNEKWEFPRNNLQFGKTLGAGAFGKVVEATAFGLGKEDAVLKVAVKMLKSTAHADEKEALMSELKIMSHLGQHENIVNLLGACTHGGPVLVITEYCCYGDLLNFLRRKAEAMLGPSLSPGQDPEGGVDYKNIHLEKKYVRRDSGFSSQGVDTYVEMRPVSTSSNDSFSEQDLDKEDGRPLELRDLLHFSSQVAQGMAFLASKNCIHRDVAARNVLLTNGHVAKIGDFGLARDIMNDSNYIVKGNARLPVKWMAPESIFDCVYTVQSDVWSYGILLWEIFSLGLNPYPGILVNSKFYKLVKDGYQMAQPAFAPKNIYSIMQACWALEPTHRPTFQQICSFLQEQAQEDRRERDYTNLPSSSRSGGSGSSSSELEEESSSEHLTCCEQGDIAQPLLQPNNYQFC
T4 sequence (O00329 whole entry): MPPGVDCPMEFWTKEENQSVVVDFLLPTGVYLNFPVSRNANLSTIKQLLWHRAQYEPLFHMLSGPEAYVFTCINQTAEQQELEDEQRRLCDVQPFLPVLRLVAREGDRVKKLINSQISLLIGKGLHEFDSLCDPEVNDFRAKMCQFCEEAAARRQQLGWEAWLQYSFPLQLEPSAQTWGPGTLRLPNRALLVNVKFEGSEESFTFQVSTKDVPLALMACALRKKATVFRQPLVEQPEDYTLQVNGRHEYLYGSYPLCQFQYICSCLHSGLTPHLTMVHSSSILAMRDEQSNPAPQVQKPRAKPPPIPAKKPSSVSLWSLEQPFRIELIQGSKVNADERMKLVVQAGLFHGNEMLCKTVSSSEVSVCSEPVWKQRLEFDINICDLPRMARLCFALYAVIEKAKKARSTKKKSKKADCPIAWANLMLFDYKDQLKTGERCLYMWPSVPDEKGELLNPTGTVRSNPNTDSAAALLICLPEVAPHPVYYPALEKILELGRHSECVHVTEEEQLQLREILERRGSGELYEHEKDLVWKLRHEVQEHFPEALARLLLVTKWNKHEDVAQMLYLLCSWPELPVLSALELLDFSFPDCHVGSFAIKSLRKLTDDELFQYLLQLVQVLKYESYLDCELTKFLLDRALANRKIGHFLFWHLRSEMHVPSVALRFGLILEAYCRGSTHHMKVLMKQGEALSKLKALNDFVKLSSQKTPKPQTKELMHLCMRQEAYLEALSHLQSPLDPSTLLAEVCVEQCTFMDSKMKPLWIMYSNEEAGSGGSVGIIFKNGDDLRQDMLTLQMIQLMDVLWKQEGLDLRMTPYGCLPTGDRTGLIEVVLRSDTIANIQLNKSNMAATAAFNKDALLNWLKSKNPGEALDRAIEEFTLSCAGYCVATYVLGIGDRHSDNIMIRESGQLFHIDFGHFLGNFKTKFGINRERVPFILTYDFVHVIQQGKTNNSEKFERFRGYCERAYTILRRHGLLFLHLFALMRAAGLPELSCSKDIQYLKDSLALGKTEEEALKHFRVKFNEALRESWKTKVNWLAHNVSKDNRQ
T4 sequence (P27986 whole entry partner): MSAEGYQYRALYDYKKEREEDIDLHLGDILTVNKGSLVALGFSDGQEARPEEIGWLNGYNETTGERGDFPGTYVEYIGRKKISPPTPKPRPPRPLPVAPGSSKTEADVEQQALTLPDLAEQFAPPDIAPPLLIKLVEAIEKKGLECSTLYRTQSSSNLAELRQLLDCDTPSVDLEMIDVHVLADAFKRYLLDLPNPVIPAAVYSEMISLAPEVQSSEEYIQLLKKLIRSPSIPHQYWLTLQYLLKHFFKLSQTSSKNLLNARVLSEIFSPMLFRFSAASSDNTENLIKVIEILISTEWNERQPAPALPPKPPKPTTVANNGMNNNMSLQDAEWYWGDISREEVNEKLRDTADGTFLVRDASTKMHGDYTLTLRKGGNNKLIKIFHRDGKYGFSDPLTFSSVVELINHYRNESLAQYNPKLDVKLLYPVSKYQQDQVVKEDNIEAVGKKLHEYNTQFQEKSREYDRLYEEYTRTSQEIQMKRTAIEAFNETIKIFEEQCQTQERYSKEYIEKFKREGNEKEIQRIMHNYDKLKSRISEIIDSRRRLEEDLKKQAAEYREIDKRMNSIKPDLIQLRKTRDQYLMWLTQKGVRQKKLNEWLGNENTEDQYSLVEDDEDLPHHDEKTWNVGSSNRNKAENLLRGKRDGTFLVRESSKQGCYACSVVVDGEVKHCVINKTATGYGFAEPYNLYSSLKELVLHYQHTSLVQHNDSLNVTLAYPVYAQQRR

For the compound `N#Cc1cc2cnc(Nc3cccc(C(N)=O)c3)nc2n(C2CCCC2)c1=O` [Compound No. 5, 3-((6-cyano-8-cyclopentyl-7-oxo-7,8-dihydropyrido[2,3-d]pyrimidin-2-yl)amino)benzamide], the pIC50 on FMS kinase is 9.00; on CDK4, 6.67; at CDK6 it was 7.32; on PI3Kδ kinase, 6.35.
For `CN1CCC(c2ccc(Nc3ncc4cc(C#N)c(=O)n(C5CCCC5)c4n3)cc2F)CC1` [Compound No. 46, 8-cyclopentyl-2-((3-fluoro-4-(1-methylpiperidin-4-yl)phenyl)amino)-7-oxo-7,8-dihydropyrido[2,3-d]pyrimidine-6-carbonitrile], the pIC50 was 6.56 in test [1]; 8.60 at FMS kinase; 7.82 on CDK4; 8.30 on CDK6; 6.18 against PI3Kδ kinase.
As for `CN1CCN(c2ccc(Nc3ncc4cc(C#N)c(=O)n(Cc5ccccc5)c4n3)cc2)CC1` [Compound No. 32, 8-benzyl-2-((4-(4-methylpiperazin-1-yl)phenyl)amino)-7-oxo-7,8-dihydropyrido[2,3-d]pyrimidine-6-carbonitrile], the pIC50 in test [1] was 5.70; at FMS kinase it was 8.46; at CDK4 it was 9.00; on CDK6 it was 8.15; against PI3Kδ kinase, 6.60.
In the case of `CN1CCc2cc(Nc3ncc4cc(C#N)c(=O)n(C5CCCC5)c4n3)ccc2C1` [Compound No. 38, 8-cyclopentyl-2-((2-methyl-1,2,3,4-tetrahydroisoquinolin-6-yl)amino)-7-oxo-7,8-dihydropyrido[2,3-d]pyrimidine-6-carbonitrile], the pIC50 in test [1] was 6.34; at FMS kinase, 8.26; on CDK4 it was 8.82; at CDK6 it was 9.00; against PI3Kδ kinase, 6.42.
Turning to `N#Cc1cc2cnc(Nc3cccc(S(N)(=O)=O)c3)nc2n(C2CCCC2)c1=O` [Compound No. 3, 3-((6-cyano-8-cyclopentyl-7-oxo-7,8-dihydropyrido[2,3-d]pyrimidin-2-yl)amino)benzenesulfonamide], the pIC50 was 7.46 at FMS kinase, 7.92 at CDK4, 7.85 on CDK6 and 6.89 against PI3Kδ kinase.
In the case of `CC(C)N1CCc2cc(Nc3ncc4cc(C#N)c(=O)n(C5CCCC5)c4n3)ccc2C1` [Compound No. 45, 8-cyclopentyl-2-((2-isopropyl-1,2,3,4-tetrahydroisoquinolin-6-yl)amino)-7-oxo-7,8-dihydropyrido[2,3-d]pyrimidine-6-carbonitrile], the pIC50 in test [1] is 6.37; on FMS kinase, 8.70; at CDK4, 8.35; on CDK6, 7.72; at PI3Kδ kinase, 6.31.
As for `CN1CCN(c2ccc(Nc3ncc4cc(C#N)c(=O)n([C@H]5CC[C@H](C)CC5)c4n3)cc2)CC1` [Compound No. 1, 8-((1r,4r)-4-methylcyclohexyl)-2-((4-(4-methylpiperazin-1-yl)phenyl)amino)-7-oxo-7,8-dihydropyrido[2,3-d]pyrimidine-6-carbonitrile], the pIC50 was 5.09 in test [1]; above 6.52 at FMS kinase; 8.70 on CDK4; 9.00 on CDK6; 6.41 at PI3Kδ kinase.
On the same counts, the results for `N#Cc1cc2cnc(Nc3ccc(N4CCC(O)CC4)c(F)c3)nc2n(C2CCCC2)c1=O` [Compound No. 49, 8-cyclopentyl-2-((3-fluoro-4-(4-hydroxypiperidin-1-yl)phenyl)amino)-7-oxo-7,8-dihydropyrido[2,3-d]pyrimidine-6-carbonitrile] are 5.35, 9.00, 8.04, 8.40 and 8.37.
On the same counts, the results for `CC(c1ccccc1)n1c(=O)c(C#N)cc2cnc(Nc3ccc(N4CCN(C)CC4)cc3)nc21` (centres unmarked) [Compound No. 35, 2-((4-(4-methylpiperazin-1-yl)phenyl)amino)-7-oxo-8-(1-phenylethyl)-7,8-dihydropyrido[2,3-d]pyrimidine-6-carbonitrile] are 5.41, 8.15, below 6.70, 7.04 and 6.13.
Turning to `CN1CCc2ccc(Nc3ncc4cc(C#N)c(=O)n(C5CCCC5)c4n3)cc2C1` [Compound No. 34, 8-cyclopentyl-2-((2-methyl-1,2,3,4-tetrahydroisoquinolin-7-yl)amino)-7-oxo-7,8-dihydropyrido[2,3-d]pyrimidine-6-carbonitrile], the pIC50 was 6.50 in test [1]; 8.28 at FMS kinase; 8.19 at CDK4; 8.05 at CDK6; 5.91 at PI3Kδ kinase.
On the same counts, the results for `CN(C)Cc1c[nH]c2cc(Nc3ncc4cc(C#N)c(=O)n(C5CCCC5)c4n3)ccc12` [Compound No. 21, 8-cyclopentyl-2-((3-((dimethylamino)methyl)-1H-indol-6-yl)amino)-7-oxo-7,8-dihydropyrido[2,3-d]pyrimidine-6-carbonitrile] are 6.62, 8.60, 7.96, 8.70 and 6.00.
On the same counts, the results for `N#Cc1cc2cnc(Nc3ccc(N4CCNCC4)cc3)nc2n(C2CCc3ccccc32)c1=O` (centres unmarked) [Compound No. 42, 8-(2,3-dihydro-1H-inden-1-yl)-7-oxo-2-((4-(piperazin-1-yl)phenyl)amino)-7,8-dihydropyrido[2,3-d]pyrimidine-6-carbonitrile] are 6.15, 8.40, 7.24, 7.92 and 6.19.
On the same counts, the results for `CCN(CC)CCOc1ccc(Nc2ncc3cc(C#N)c(=O)n(C4CCCC4)c3n2)cc1` [Compound No. 41, 8-cyclopentyl-2-((4-(2-(diethylamino)ethoxy)phenyl)amino)-7-oxo-7,8-dihydropyrido[2,3-d]pyrimidine-6-carbonitrile] are 6.79, above 9.00, 8.26, 9.00 and 6.39.
`CN(C)CC1Cc2ccc(Nc3ncc4cc(C#N)c(=O)n(C5CCCC5)c4n3)cc2C(=O)N1` (centres unmarked) [Compound No. 22, 8-cyclopentyl-2-((3-((dimethylamino)methyl)-1-oxo-1,2,3,4-tetrahydroisoquinolin-7-yl)amino)-7-oxo-7,8-dihydropyrido[2,3-d]pyrimidine-6-carbonitrile]: the pIC50 is 5.99 in test [1]; above 9.00 on FMS kinase; below 6.70 on CDK4; 7.19 on CDK6; 7.37 against PI3Kδ kinase.
In the case of `N#Cc1cc2cnc(Nc3ccc(N4CCNCC4=O)cc3)nc2n(C2CCCC2)c1=O` [Compound No. 12, 8-cyclopentyl-7-oxo-2-((4-(2-oxopiperazin-1-yl)phenyl)amino)-7,8-dihydropyrido[2,3-d]pyrimidine-6-carbonitrile], the pIC50 in test [1] was 5.60; at FMS kinase, 9.40; against PI3Kδ kinase, 5.88.
